Measured values from US20230203041A1, “ANTAGONISTS OF THE ADENOSINE A2A RECEPTOR” (AdoRx Therapeutics Limited, priority 2020, published 2023).

What was measured:
[1] = molecular target: T1, human Adenosine A3 receptor (Homo sapiens, UniProt P0DMS8); test: Adenosine receptor TR-FRET binding assay (CA200645 displacement), A3
T1 sequence (P0DMS8 1-318): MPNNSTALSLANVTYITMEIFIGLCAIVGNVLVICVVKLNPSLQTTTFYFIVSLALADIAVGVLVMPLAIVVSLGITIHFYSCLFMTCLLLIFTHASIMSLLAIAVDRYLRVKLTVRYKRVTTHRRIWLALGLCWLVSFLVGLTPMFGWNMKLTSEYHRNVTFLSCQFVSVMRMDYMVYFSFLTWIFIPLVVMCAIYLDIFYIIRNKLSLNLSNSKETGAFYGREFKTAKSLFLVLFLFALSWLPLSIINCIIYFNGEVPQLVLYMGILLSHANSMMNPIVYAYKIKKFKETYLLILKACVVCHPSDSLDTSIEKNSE

[2] = molecular target: T2, human Adenosine A1 receptor (Homo sapiens, UniProt P30542); test: Adenosine receptor TR-FRET binding assay (CA200645 displacement), A1
T2 sequence (P30542 1-326): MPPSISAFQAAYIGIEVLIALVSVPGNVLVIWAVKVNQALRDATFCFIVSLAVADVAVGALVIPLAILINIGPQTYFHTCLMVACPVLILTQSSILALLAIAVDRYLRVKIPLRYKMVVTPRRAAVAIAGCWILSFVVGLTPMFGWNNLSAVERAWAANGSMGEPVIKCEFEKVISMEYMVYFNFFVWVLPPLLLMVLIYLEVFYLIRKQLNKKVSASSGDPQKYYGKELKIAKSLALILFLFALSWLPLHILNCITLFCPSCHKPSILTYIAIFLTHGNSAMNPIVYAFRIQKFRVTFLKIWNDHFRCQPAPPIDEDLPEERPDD

[3] = molecular target: T3, human Adenosine A2a receptor (Homo sapiens, UniProt P29274); test: Adenosine receptor TR-FRET binding assay (CA200645 displacement), A2a; settings: 100 nM CA200645, CHO cell membranes, 2 hours at room temperature
T3 construct: expressed in transfected cells; host or cells: CHO cell membranes
T3 sequence (P29274 whole entry): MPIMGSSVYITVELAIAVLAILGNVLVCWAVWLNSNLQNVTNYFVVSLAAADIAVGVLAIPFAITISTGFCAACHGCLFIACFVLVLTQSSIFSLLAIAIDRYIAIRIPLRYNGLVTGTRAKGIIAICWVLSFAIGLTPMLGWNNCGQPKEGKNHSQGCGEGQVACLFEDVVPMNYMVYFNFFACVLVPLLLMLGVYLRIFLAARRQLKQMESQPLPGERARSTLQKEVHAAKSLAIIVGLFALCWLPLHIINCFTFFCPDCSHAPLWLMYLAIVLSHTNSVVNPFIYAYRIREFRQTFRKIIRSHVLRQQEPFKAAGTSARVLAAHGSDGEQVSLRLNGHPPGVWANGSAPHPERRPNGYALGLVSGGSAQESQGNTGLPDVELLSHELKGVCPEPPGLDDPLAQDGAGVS

[4] = molecular target: T4, human Adenosine A2b receptor (Homo sapiens, UniProt P29275); test: Adenosine receptor TR-FRET binding assay (CA200645 displacement), A2b; settings: 30 nM CA200645, CHO cell membranes, 2 hours at room temperature
T4 construct: expressed in transfected cells; host or cells: CHO cell membranes
T4 sequence (P29275 1-332): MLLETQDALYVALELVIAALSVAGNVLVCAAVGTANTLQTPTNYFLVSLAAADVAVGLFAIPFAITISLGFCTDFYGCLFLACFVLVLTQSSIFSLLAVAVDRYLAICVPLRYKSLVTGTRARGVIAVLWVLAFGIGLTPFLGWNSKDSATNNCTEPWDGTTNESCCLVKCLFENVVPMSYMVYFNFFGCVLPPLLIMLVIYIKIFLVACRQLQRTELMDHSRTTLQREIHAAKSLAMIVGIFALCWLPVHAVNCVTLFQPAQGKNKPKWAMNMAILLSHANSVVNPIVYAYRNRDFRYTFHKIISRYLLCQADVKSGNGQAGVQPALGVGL
Description: All FRET binding experiments were conducted at room temperature in white 384-well plates, in assay binding buffer containing 1×LabMed (Cisbio, France), 100 μg/mL saponin, 1% DMSO and 0.02% pluronic acid. Binding of the fluorescently labelled Adenosine receptor antagonist XAC (CA200645, FRET acceptor) to terbium-labelled A1, A2a, A2b and A3 adenosine receptors (FRET donors) was detected by time-resolved FRET due to the close proximity of the donor and acceptor in a binding event. To investigate the ability of unlabelled test compounds to bind to Adenosine A1, A2a, A2b and A3 receptors, dose response curves were constructed that determined the ability of a range of concentrations to inhibit the binding of 30 nM CA200645 to the A2b receptor and 100 nM CA200645 to the A1, A2a, and A3 receptor.
Serial dilution (1:3 dilutions) of test compounds in neat DMSO and transfer of a 400 nL sample of test compound into the assay plate was carried out using the Mosquito (TTP Labtech, UK). The compound samples were incubated for 2 hours at room temperature with a fixed concentration of CA200645 defined for each receptor (see above) and CHO cell membranes containing the human Adenosine A1 (0.5 μg/well), A2a (0.3 μg/well), A2b (1 μg/well) or A3 (1 μg/well) receptor in 40 μL of assay buffer. Total and non-specific binding of CA200645 was determined in the absence and presence of 10 μM XAC, respectively. Following 2 hours incubation, the level of CA200645 binding was detected on a Pherastar FSX (BMG Labtech, Germany) using standard TR-FRET settings. The terbium donor was excited with three laser flashes at a wavelength of 337 nm, and donor and acceptor emission was detected at 620 nm and 665 nm wavelengths, respectively. FRET ratios were obtained by multiplying the acceptor/donor ratio value by 10,000. Specific binding was determined by subtracting the non-specific binding FRET ratio from the total binding FRET ratio. Compound IC50 curves were analysed using GraphPad Prism 7.0 (GraphPad, USA) and Ki affinity values were determined from the obtained IC50 values using the method of Cheng and Prusoff.

[5] = system: CD8+ T cells in human whole blood; test: Measurement of pCREB in CD8+ T cells in human whole blood; format: cell-based; settings: T-cell, 1 h; heparinised human whole blood, rolipram, 3 μM NECA, 60 min, phospho-CREB in CD8+ T cells by FACS
Description: Heparinised human whole blood was pre-incubated at 37° C. with serial dilutions of A2a antagonists for 20 min. and the phosphodiesterase inhibitor rolipram to amplify the pCREB response. The adenosine receptor agonist NECA is then added at a final concentration of 3 μM and following a 60 min incubation the blood is fixed and red blood cells lysed. White blood cells are isolated, permeabilized and stained with directly conjugated fluorescent antibodies to phospho-CREB (Alexa Fluor 488) and CD8 (Alexa Fluor 647) and the level of phospho-CREB in CD8+ T cells is measured by FACS using a BD Accuri C6 Flow Cytometer.

[6] = system: human PBMCs; test: CD3/CD28 stimulated IL-2 release NECA reversal assay in human PBMCs; format: cell-based; settings: PBMC, CD3/CD28 antibody stimulated, 1 uM NECA, 24 hours, IL-2 in culture supernatant;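 further: dose-response as % inhibition where 100% equals no-NECA control wells with CD3/CD28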
Description: Blood is drawn from healthy volunteers using sodium citrate as the anticoagulant (0.3% final concentration). After centrifugation of the blood over Histopaque-1077, PBMCs are collected from the Histopaque/plasma interface and washed twice in PBS (300 g for 10 mins at room temp). Cells are plated at 50,000 cells/well in 150 μl RPMI/10% FCS in 96-well cell culture plates that have been precoated with 1 ug/ml CD3 antibody. 50 μl diluted compound mix is added to the cells, to obtain final concentrations of 1 ug/ml CD28 antibody, 1 uM NECA and 0.003-10 μM adenosine receptor antagonist. Assay plates are incubated for 24 hours at 37° C. in a humidified incubator. Culture supernatant is tested for IL-2 levels using the human IL-2 Tissue Culture Kit (Meso Scale Discovery).

Ki [1] [nM]	Ki [2] [nM]	Ki [3] [nM]	Ki [4] [nM]	IC50 [5] [nM]	SMILES	IC50 [6] [nM]
> 1000	44	2.9	15	1800	Cc1cc(-c2c(-c3cccc(C#N)c3)nn3ccc(C(=O)NC(C)(C)CN)nc23)cc(Cl)n1 [Example 7.3, N-(2-Amino-1,1-dimethyl-ethyl)-3-(2-chloro-6-methyl-4-pyridyl)-2-(3-cyanophenyl)pyrazolo[1,5-a]pyrimidine-5-carboxamide]	172
> 1000	189	4.2	25	1060	Cc1cc(-c2c(-c3cccc(C#N)c3)nn3ccc(NC[C@H]4COCCN4)nc23)cc(Cl)n1 [Example 4.5]	12
> 1000	160	0.6	2	70	Cc1cc(-c2c(-c3cccc(C#N)c3)nn3ccc(C(=O)N[C@H](C)[C@H](O)CO)nc23)cc(Cl)n1 [Example 7.9, 3-(2-Chloro-6-methyl-4-pyridyl)-2-(3-cyanophenyl)-N-[(1 R,2S)-2,3-dihydroxy-1-methyl-propyl]pyrazolo[1,5-a]pyrimidine-5-carboxamide]	4
2050	81	1.2	7	530	Cc1cc(-c2c(-c3cccc(C#N)c3)nn3ccc(NC(=O)CC(C)(C)O)nc23)cc(Cl)n1 [Example 94.2, N-[3-(2-chloro-6-methyl-4-pyridyl)-2-(3-cyanophenyl)pyrazolo[1,5-a]pyrimidin-5-yl]-3-hydroxy-3-methyl-butanamide]	20
> 1000	217	1.5	21	2100	Cc1cc(-c2c(-c3cccc(C#N)c3)nn3ccc(C(=O)NOCC(C)(C)O)nc23)cc(C)n1 [Example 92.11]	
> 1000	428	1.5	32	140	Cc1cc(-c2c(-c3cccc(C#N)c3)nn3ccc(C(=O)N[C@H]4CN(C)C[C@H]4O)nc23)cc(C)n1 [Example 92.34]	
> 1000		0.3	2	210	Cc1cc(-c2c(-c3cccc(C#N)c3)nn3ccc(N[C@H](C)CO)nc23)cc(Cl)n1 [Example 3.3]	1
	3	2.1	2	2010	N#Cc1cccc(-c2nn3ccc(N)nc3c2-c2ccncc2)c1 [Example 1, 3-[5-Amino-3-(4-pyridyl)pyrazolo[1,5-a]pyrimidin-2-yl]benzonitrile]	305
> 1000	591	0.5	117	150	Cc1cc(-c2c(-c3cccc(C#N)c3)nn3ccc(C(=O)N[C@H](C)C(C)(C)O)nc23)cc(C)n1 [Example 92.10]	
	255	6.9	58	2760	Cc1cc(-c2c(-c3cccc(C#N)c3)nn3ccc(N4CCO[C@@H](C(=O)O)C4)nc23)cc(Cl)n1 [Example 2.24]	92
1040	102	0.2	71	340	Cc1cc(-c2c(-c3cccc(C#N)c3)nn3ccc(C(=O)NC(C)(C)C)nc23)cc(N)n1 [Example 91, 3-(2-Amino-6-methyl-4-pyridyl)-N-tert-butyl-2-(3-cyanophenyl)pyrazolo [1,5-a]pyrimidine-5-carboxamide]	
> 1000	347	1.3	23	330	Cc1cc(-c2c(-c3cccc(C#N)c3)nn3ccc(C(=O)N[C@H]4C[C@@](C)(O)C4)nc23)cc(C)n1 [Example 92.24]	

More lines, now with the values behind:

SMILES	Ki [1] [nM]	Ki [2] [nM]	Ki [3] [nM]	Ki [4] [nM]	IC50 [5] [nM]	IC50 [6] [nM]
Cc1cc(-c2c(-c3cccc(C#N)c3)nn3ccc(C(=O)NCC4CCNC(=O)C4)nc23)cc(C)n1 (stereo not drawn) [Example 92.4]	> 1000	362	4.4	23	830	33
COCC(C)(C#N)NC(=O)c1ccn2nc(-c3cccc(C#N)c3)c(-c3cc(C)nc(Cl)c3)c2n1 (stereo not drawn) [Example 6.11, 3-(2-Chloro-6-methyl-4-pyridyl)-N-(1-cyano-2-methoxy-1-methyl-ethyl)-2-(3-cyanophenyl)pyrazolo[1,5-a]pyrimidine-5-carboxamide]	379	32	0.1	3	20	
Cc1cc(-c2c(-c3cccc(C#N)c3)nn3ccc(C(=O)N[C@@H]4COC[C@@]4(C)O)nc23)cc(C)n1 [Example 92.13]	> 1000	282	1	101	100	
Cc1cc(-c2c(-c3cccc(C#N)c3)nn3ccc(C(=O)NCC4(C)COC(=O)N4)nc23)cc(C)n1 (stereo not drawn) [Example 92.21]	> 1000	288	0.7	17	110	
Cc1cc(-c2c(-c3cccc(C#N)c3)nn3ccc(C(=O)NCC4CCCN(C)C4=O)nc23)cc(C)n1 (stereo not drawn) [Example 92.14]	> 1000	79	0.4	10	60	
Cc1cc(-c2c(-c3cccc(C#N)c3)nn3ccc(C(=O)N[C@@H]4COC[C@]4(C)O)nc23)cc(C)n1 [Example 92.12]	> 1000	274	0.8	44	150	
N#Cc1c(-c2ccco2)nn2ccc(N3CCN(Cc4c(F)cc(F)cc4F)CC3)nc12 [Example 51.1, 2-(2-Furyl)-5-[4-[(2,4,6-trifluorophenyl)methyl]piperazin-1-yl]pyrazolo [1,5-a]pyrimidine-3-carbonitrile]	> 1000	322	26.5	1420		16
NC(=O)c1c(-c2ccco2)nn2ccc(NCc3ccccc3)nc12 [Example 46, 5-(Benzylamino)-2-(2-furyl)pyrazolo[1,5-a]pyrimidine-3-carboxamide]	1270	146	2.7	257		60
Cc1cc(-c2c(-c3cccc(C#N)c3)nn3ccc(C(=O)N[C@H]4CC[C@](C)(O)CC4)nc23)cc(C)n1 [Example 92.22]	> 1000	204	0.6	29	370	
Fc1cccc(-c2cc3nc(NCc4ccccc4)ccn3n2)c1 [Example 66, N-benzyl-2-(3-fluorophenyl)pyrazolo[1,5-a]pyrimidin-5-amine]	> 1000	59	44.7	384		869
O=Cc1c(-c2ccco2)nn2ccc(NCc3ccccc3)nc12 [Example 47, 5-(Benzylamino)-2-(2-furyl)pyrazolo[1,5-a]pyrimidine-3-carbaldehyde]	510	174	5.2	483		140
